± gives the expanded uncertainty stated by the source.
Experiment: activity coefficient (dimensionless); of the first substance listed, at infinite dilution; xn = mol fraction of the nth substance listed
Conditions: 298 K; 101.3 kPa; Liquid; Chromatography; x1 = 0

Compound	activity coefficient
C=CCCC [1-pentene] + CCCCCCCC[n+]1ccn(C)c1.F[B-](F)(F)F	5.08 ± 0.35
CCCCO [butan-1-ol] + CCCCCCCC[n+]1ccn(C)c1.F[B-](F)(F)F	2.32 ± 0.16
CCCCCO [pentan-1-ol] + CCCCCCCC[n+]1ccn(C)c1.F[B-](F)(F)F	2.38 ± 0.16
CCCCC [pentane] + CCCCCCCC[n+]1ccn(C)c1.F[B-](F)(F)F	9.07 ± 0.62
C=CCCCCC [1-heptene] + CCCCCCCC[n+]1ccn(C)c1.F[B-](F)(F)F	9.76 ± 0.67
CCCO [propan-1-ol] + CCCCCCCC[n+]1ccn(C)c1.F[B-](F)(F)F	2.18 ± 0.15
C=CCCCCCC [oct-1-ene] + CCCCCCCC[n+]1ccn(C)c1.F[B-](F)(F)F	13.1 ± 0.9
CCO [ethanol] + CCCCCCCC[n+]1ccn(C)c1.F[B-](F)(F)F	1.75 ± 0.12
C1=CCCC=C1 [1,3-cyclohexadiene] + CCCCCCCC[n+]1ccn(C)c1.F[B-](F)(F)F	2.69 ± 0.18
C=CCCCC [hex-1-ene] + CCCCCCCC[n+]1ccn(C)c1.F[B-](F)(F)F	7.06 ± 0.48
CO [methanol] + CCCCCCCC[n+]1ccn(C)c1.F[B-](F)(F)F	1.07 ± 0.07

Continued, values first:

activity coefficient	Compound
32.7 ± 2.2	C=CCCCCCCCCCC [1-dodecene] + CCCCCCCC[n+]1ccn(C)c1.F[B-](F)(F)F
28.4 ± 1.9	CCCCCCCCC [nonane] + CCCCCCCC[n+]1ccn(C)c1.F[B-](F)(F)F
25.8 ± 1.8	C=CCCCCCCCCC [1-undecene] + CCCCCCCC[n+]1ccn(C)c1.F[B-](F)(F)F
77.9 ± 5.3	CCCCCCCCCCCC [dodecane] + CCCCCCCC[n+]1ccn(C)c1.F[B-](F)(F)F
21.4 ± 1.5	C=CCCCCCCCC [1-decene] + CCCCCCCC[n+]1ccn(C)c1.F[B-](F)(F)F
16 ± 1.1	CCCCCCC [heptane] + CCCCCCCC[n+]1ccn(C)c1.F[B-](F)(F)F
60.9 ± 4.2	CCCCCCCCCCC [undecane] + CCCCCCCC[n+]1ccn(C)c1.F[B-](F)(F)F
12.4 ± 0.8	CCCCCC [hexane] + CCCCCCCC[n+]1ccn(C)c1.F[B-](F)(F)F
22 ± 1.5	CCCCCCCC [octane] + CCCCCCCC[n+]1ccn(C)c1.F[B-](F)(F)F
36.4 ± 2.5	CCCCCCCCCC [decane] + CCCCCCCC[n+]1ccn(C)c1.F[B-](F)(F)F
16.5 ± 1.1	C=CCCCCCCC [1-nonene] + CCCCCCCC[n+]1ccn(C)c1.F[B-](F)(F)F
2.58 ± 0.18	CCCCCCO [hexan-1-ol] + CCCCCCCC[n+]1ccn(C)c1.F[B-](F)(F)F

— the NIST ThermoML archive (doi:10.1021/je050134y)
